# Test results as given in patent US12076443B2, “Preparation method of nanozyme composite-based hybrid hydrogel eye drop” (INSTITUTE OF OPHTHALMOLOGY AFFILIATED TO SHANDONG FIRST …, priority 2022, dated 2024).
# Tests used:
# P. aeruginosa [1] = assay: in vitro antibacterial experiment of TCNH eye drop; type: cell-based, Pseudomonas aeruginosa
# Source text: (§1) The TCNH eye drop prepared in the above embodiment was used in in vitro antibacterial experiments for Escherichia coli (E. coli), P. aeruginosa, drug-resistant P. aeruginosa, and Candida albicans (C. albicans) and in vivo prevention and treatment experiments for corneal infections caused by P. aeruginosa and drug-resistant P. aeruginosa.
# (§2) FIG. 4 to FIG. 6 show results of the in vitro antibacterial experiments of the TCNH eye drop.
# [2] = test system: drug-resistant P. aeruginosa; assay: in vitro antibacterial experiment of TCNH eye drop; type: cell-based, Pseudomonas aeruginosa
# Source text: as §1, §2
# P. aeruginosa [3] = assay: in vivo antibacterial experiment, corneal infection (P. aeruginosa); settings: FIGS. 7A-7B
# Source text: as §1
# [4] = test system: Candida albicans (C. albicans); assay: in vitro antibacterial experiment of TCNH eye drop; type: cell-based
# Source text: as §1, §2
# [5] = test system: Escherichia coli (E. coli); assay: in vitro antibacterial experiment of TCNH eye drop; type: cell-based
# Source text: as §1, §2
# P. aeruginosa [6] = settings: P. aeruginosa isolated from the ocular surface; cited from earlier work
# [7] = test system: drug-resistant P. aeruginosa strain; assay: in vivo antibacterial experiment, corneal infection (drug-resistant P. aeruginosa strain); settings: FIGS. 8A-8B
# Source text: as §1
compound,measurement,setting,value
"OO [H2O2, hydrogen peroxide]",bacterial colonies on plates (plate experiment),P. aeruginosa [1]; FIG. 4,overgrown with bacteria
same,live bacteria stained green / dead bacteria stained red,P. aeruginosa [1]; FIG. 5,a large number of live bacteria stained green and a small number of dead bacteria stained red
same,bacterial morphology under a scanning electron microscope,P. aeruginosa [1]; FIG. 6,regular and intact morphology
same,bacterial colonies on plates (plate experiment),[2]; FIG. 4,overgrown with bacteria
same,live bacteria stained green / dead bacteria stained red,[2]; FIG. 5,a large number of live bacteria stained green and a small number of dead bacteria stained red
same,bacterial morphology under a scanning electron microscope,[2]; FIG. 6,regular and intact morphology
same,corneal infection,P. aeruginosa [3],obviously infected
same,bacterial colonies on plates (plate experiment),[4]; FIG. 4,overgrown with bacteria
same,live bacteria stained green / dead bacteria stained red,[4]; FIG. 5,a large number of live bacteria stained green and a small number of dead bacteria stained red
same,bacterial morphology under a scanning electron microscope,[4]; FIG. 6,regular and intact morphology
same,bacterial colonies on plates (plate experiment),[5]; FIG. 4,overgrown with bacteria
same,live bacteria stained green / dead bacteria stained red,[5]; FIG. 5,a large number of live bacteria stained green and a small number of dead bacteria stained red
same,bacterial morphology under a scanning electron microscope,[5]; FIG. 6,regular and intact morphology
CC(C)(O/N=C(\C(=O)N[C@@H]1C(=O)N2C(C(=O)[O-])=C(C[n+]3ccccc3)CS[C@H]12)c1csc(N)n1)C(=O)O [ceftazidime],average resistance rate of P. aeruginosa to the antibiotic,P. aeruginosa [6],13%
O=C(O)c1cn(C2CC2)c2cc(N3CCNCC3)c(F)cc2c1=O [ciprofloxacin],average resistance rate of P. aeruginosa to the antibiotic,P. aeruginosa [6],9%
NC[C@H]1O[C@H](O[C@H]2[C@H](O)[C@@H](O[C@H]3O[C@H](CO)[C@@H](O)[C@H](N)[C@H]3O)[C@H](N)C[C@@H]2N)[C@H](N)C[C@@H]1O [tobramycin],corneal infection,[7],significant infection
gentamicin,corneal infection,[7],significant infection
same,average resistance rate of P. aeruginosa to the antibiotic,P. aeruginosa [6],22%
